Test results taken from patent US20230086703A1, “N-(4-(5-chloropyridin-3-yl)phenyl)-2-(2-(cyclopropanesulfonamido)pyrimidin-4-yl) butanamide derivatives and related compounds as human CTPS1 inhibitors for the treatment of proliferative diseases” (Step Pharma S.A.S., priority 2019, published 2023).

target: T1, human CTPS1 (Homo sapiens, UniProt P17812); assay: RapidFire/MS-based enzyme selectivity assay (human CTPS1 versus CTPS2), CTPS1 isoform; type: biochemical; settings: RapidFire/MS IC50 values of CTPS1 and CTPS2; Table 15
T1 construct: FLAG (with GG linker); His8 (with GG linker); purchased Proteros biostructures GmbH
T1 sequence (P17812 1-591): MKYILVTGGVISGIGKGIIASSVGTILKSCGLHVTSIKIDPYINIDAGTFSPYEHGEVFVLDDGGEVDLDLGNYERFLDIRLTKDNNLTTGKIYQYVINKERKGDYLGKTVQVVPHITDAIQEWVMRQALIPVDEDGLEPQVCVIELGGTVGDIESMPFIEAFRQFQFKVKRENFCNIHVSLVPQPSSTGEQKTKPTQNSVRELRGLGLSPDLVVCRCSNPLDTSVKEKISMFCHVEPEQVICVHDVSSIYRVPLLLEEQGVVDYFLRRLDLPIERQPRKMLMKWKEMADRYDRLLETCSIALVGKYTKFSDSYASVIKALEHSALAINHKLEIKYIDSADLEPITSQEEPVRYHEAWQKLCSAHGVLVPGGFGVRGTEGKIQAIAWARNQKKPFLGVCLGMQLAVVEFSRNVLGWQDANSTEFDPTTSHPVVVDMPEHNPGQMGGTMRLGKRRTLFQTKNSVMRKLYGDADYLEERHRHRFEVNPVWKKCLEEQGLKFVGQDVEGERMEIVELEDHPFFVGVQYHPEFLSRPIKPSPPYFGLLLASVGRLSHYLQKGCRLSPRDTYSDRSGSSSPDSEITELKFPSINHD
Description: Human CTPS1 Versus CTPS2 Selectivity Assessment by RapidFire/MS Analysis.
The enzyme inhibitory activities against each target isoform of interest may be determined for the compounds of the invention using an optimised RapidFire high-throughput mass spectrometry (RF/MS) assay format. RF/MS assays for both human CTPS1 and CTPS2 may be performed in assay buffer consisting of 50 mM HEPES (Merck), 20 mM MgCl2, 5 mM KCl, 1 mM DTT, 0.01% Tween-20, pH to 8.0 accordingly. Human full-length active C-terminal FLAG-His-tag CTPS1 (UniProtKB—P17812, CTPS1[1-591]-[…] (CTPS1[1-591]-SEQ ID NO: 1)) may be obtained from Proteros biostructures GmbH. Human full length active C-terminal FLAG-His-Avi tagged CTPS2 (UniProtKB—Q9NRF8, CTPS2 [1-586]-[…] (CTPS2 [1-586]—SEQ ID NO: 2)) may be obtained from Harker Bio.
Human CTPS (1 or 2) protein may be prepared in 1× assay buffer to the final working protein concentration required for the reaction. A 2 uL volume per well of 2×CTPS (1 or 2) protein may be mixed with 40 nL of compound using acoustic (ECHO) delivery and incubated for 10 minutes at 25° C. Each isoform enzymatic reaction may be subsequently initiated by addition of 2 uL per well of a 2× substrate mix in assay buffer. For hCTPS1: ATP (0.3 mM), UTP (0.2 mM), GTP (0.07 mM) and L-glutamine (0.1 mM). For hCTPS2: ATP (0.1 mM), UTP (0.04 mM), GTP (0.03 mM) and L-glutamine (0.1 mM). Each mixture may be incubated for an appropriate amount of time per isoform within the determined linear phase of the reaction at 25° C. A 80 uL volume of stop solution (1% formic acid with 0.5 uM ^13C9-^15N3-CTP in H2O) may be added and the plate immediately heat-sealed and centrifuged for 10 minutes at 4,000 rpm. Following centrifugation, plates may be loaded onto the Agilent RapidFire microfluidic solid phase extraction system coupled to an API4000 triple quadrupole mass spectrometer (RF/MS) for analysis.
In all cases, the enzyme converts UTP to CTP. Highly specific and sensitive multiple reaction monitoring (MRM) MS methods may be optimised for the detection of the enzymatic reaction product, CTP, and the stable isotope labelled product standard ^13C9-^15N3-CTP. Readout for data analysis may be calculated as the ratio between the peak area of the product CTP and the internal standard ^13C9-^15N3-CTP. For data reporting, the following equation may be used:
(R=ratio/readout, P=product signal area, IS=internal standard signal area)
For each screening plate, the means of the negative (DMSO) and positive control values were used for the calculation of the respective assay window (S/B) and Z′ values. The median of the respective control values was used for calculation of percent inhibition according to the following equation:
(I=Inhibition, Rneq=median of negative control readout values, Rpos=median of positive control readout values, Rsample=sample readout value)
Percentage inhibition was then plotted against compound concentration, and the 50% inhibitory concentration (IC50) was determined from the resultant concentration-response curve.
Fold selectivity between CTPS1 and CTPS2 was subsequently calculated according to the following equation: […]

| Structure (SMILES) | Selectivity (fold selectivity between CTPS1 and CTPS2) |
| --- | --- |
| CCOc1cncc(-c2ccc(NC(=O)C3(c4ccnc(NS(=O)(=O)C5CC5)n4)CCCC3)cc2)n1 [P2, 1-(2-(Cyclopropanesulfonamido)pyrimidin-4-yl)-N-(4-(6-ethoxypyrazin-2-yl)phenyl)cyclopentanecarboxamide] | +++ (>60 fold (+++)) |
| CC(C)Oc1cncc(-c2ccc(NC(=O)Cc3ccnc(NS(=O)(=O)C4CC4)n3)c(F)c2)n1 [P12, 2-(2-(cyclopropanesulfonamido)pyrimidin-4-yl)-N-(2-fluoro-4-(6-isopropoxypyrazin-2-yl)phenyl)acetamide] | ++ (>30-60 fold (++)) |
| O=C(Cc1ccnc(NS(=O)(=O)C2CC2)n1)Nc1ccc(-c2cccnc2)cc1 [P16, 2-(2-(cyclopropanesulfonamido)pyrimidin-4-yl)-N-(4-(pyridin-3-yl)phenyl)acetamide] | ++ (>30-60 fold (++)) |
| CCOc1cncc(-c2ccc(NC(=O)Cc3ccnc(NS(=O)(=O)C4CC4)n3)cc2)n1 [P18, 2-(2-(cyclopropanesulfonamido)pyrimidin-4-yl)-N-(4-(6-ethoxypyrazin-2-yl)phenyl)acetamide] | ++ (>30-60 fold (++)) |
| CC(C)Oc1cncc(-c2ccc(NC(=O)Cc3ccnc(NS(=O)(=O)C4CC4)n3)cc2)n1 [P21, 2-(2-(cyclopropanesulfonamido)pyrimidin-4-yl)-N-(4-(6-isopropoxypyrazin-2-yl)phenyl)acetamide] | ++ (>30-60 fold (++)) |
| CCOc1cncc(-c2ccc(NC(=O)C(C)(C)c3ccnc(NS(=O)(=O)C4CC4)n3)c(C#N)c2)n1 [P34, N-(2-cyano-4-(6-ethoxypyrazin-2-yl)phenyl)-2-(2-(cyclopropanesulfonamido)pyrimidin-4-yl)-2-methylpropanamide] | + (2-30 fold (+)) |
| CCOc1cncc(-c2ccc(NC(=O)C(C)(C)c3ccnc(NS(=O)(=O)C4CC4)n3)c(F)c2)n1 [P38, 2-(2-(cyclopropanesulfonamido)pyrimidin-4-yl)-N-(4-(6-ethoxypyrazin-2-yl)-2-fluorophenyl)-2-methylpropanamide] | + (2-30 fold (+)) |
| CC(C)Oc1cncc(-c2ccc(NC(=O)C(C)(C)c3ccnc(NS(=O)(=O)C4CC4)n3)c(F)c2)n1 [P39] | + (2-30 fold (+)) |
| CC(C)(C(=O)Nc1ccc(-c2cccnc2)cc1)c1ccnc(NS(=O)(=O)C2CC2)n1 [P59, 2-(2-(cyclopropanesulfonamido)pyrimidin-4-yl)-2-methyl-N-(4-(pyridin-3-yl)phenyl)propanamide] | + (2-30 fold (+)) |
| CCOc1cncc(-c2ccc(NC(=O)C(C)(C)c3ccnc(NS(=O)(=O)C4CC4)n3)cc2)n1 [P65, 2-(2-(cyclopropanesulfonamido)pyrimidin-4-yl)-N-(4-(6-ethoxypyrazin-2-yl)phenyl)-2-methylpropanamide] | ++ (>30-60 fold (++)) |
| CCOc1cncc(-c2ccc(NC(=O)C(C)(C)c3nc(NS(=O)(=O)C4CC4)ncc3F)cc2)n1 [P68, 2-(2-(cyclopropanesulfonamido)-5-fluropyrimidin-4-yl)-N-(4-(9-ethoxypyrazin-2-yl)phenyl)-2-methylpropanamide] | ++ (>30-60 fold (++)) |
| CCOc1cncc(-c2ccc(NC(=O)C(C)(C)c3nc(NS(=O)(=O)C4CC4)ncc3C)cc2)n1 [P70, 2-(2-(cyclopropanesulfonamido)-5-methylpyrimidin-4-yl)-N-(4-(6-ethoxypyrazin-2-yl)phenyl)-2-methylpropanamide] | + (2-30 fold (+)) |
| CCOc1cncc(-c2ccc(NC(=O)C(C)(C)c3ccnc(NS(=O)(=O)CC)n3)cc2)n1 [P74, N-(4-(6-ethoxypyrazin-2-yl)phenyl)-2-(2-(ethylsulfonamido)pyrimidin-4-yl)-2-methylpropanamide] | ++ (>30-60 fold (++)) |
| CCOc1cncc(-c2ccc(NC(=O)C(C)(C)c3ccnc(NS(C)(=O)=O)n3)nc2)n1 [P76, N-(5-(6-ethoxypyrazin-2-yl)pyridin-2-yl)-2-methyl-2-(2-(methylsulfonamido)pyrimidin-4-yl)propanamide] | ++ (>30-60 fold (++)) |
| CCOc1cncc(-c2ccc(NC(=O)C3(c4ccnc(NS(=O)(=O)C5CC5)n4)CC3)cc2)n1 [P83, 1-(2-(cyclopropanesulfonamido)pyrimidin-4-yl)-N-(4-(6-ethoxypyrazin-2-yl)phenyl)cyclopropanecarboxamide] | +++ (>60 fold (+++)) |

Continued, values first:

| Selectivity (fold selectivity between CTPS1 and CTPS2) | Structure (SMILES) |
| --- | --- |
| +++ (>60 fold (+++)) | CC(C)Oc1cncc(-c2ccc(NC(=O)C(C)(C)c3ccnc(NS(=O)(=O)C4CC4)n3)nc2)n1 [P9, 2-(2-(cyclopropanesulfonamido)pyrimidin-4-yl)-N-(5-(6-isopropoxypyrazin-2-yl)pyridin-2-yl)-2-methylpropanamide] |
| +++ (>60 fold (+++)) | CCOc1cncc(-c2ccc(NC(=O)C(C)(C)c3ccnc(NS(=O)(=O)C4CC4)n3)nc2)n1 [P31, 2-(2-(cyclopropanesulfonamido)pyrimidin-4-yl)-N-(5-(6-ethoxypyrazin-2-yl)pyridin-2-yl)-2-methylpropanamide] |
| ++ (>30-60 fold (++)) | CCC(C(=O)Nc1ccc(-c2cncc(C(F)(F)F)n2)cn1)c1ccnc(NS(=O)(=O)C2CC2)n1 (stereo not shown) [P87, 2-(2-(cyclopropanesulfonamido)pyrimidin-4-yl)-N-(5-(6-(trifluoromethyl)pyrazin-2-yl)pyridin-2-yl)butanamide] |
| +++ (>60 fold (+++)) | CCOc1cncc(-c2ccc(NC(=O)C(CC)c3ccnc(NS(=O)(=O)C4CC4)n3)nc2)n1 (stereo not shown) [P88, 2-(2-(cyclopropanesulfonamido)pyrimidin-4-yl)-N-(5-(6-ethoxypyrazin-2-yl)pyridin-2-yl)butanamide] |
| +++ (>60 fold (+++)) | CCC(C(=O)Nc1ccc(-c2cncc(OC(C)C)n2)cn1)c1ccnc(NS(=O)(=O)C2CC2)n1 (stereo not shown) [P89, 2-(2-(cyclopropanesulfonamido)pyrimidin-4-yl)-N-(5-(6-isopropoxypyrazin-2-yl)pyridin-2-yl)butanamide] |
| + (2-30 fold (+)) | CCC(C(=O)Nc1ccc(-c2cncc(OC)n2)cc1F)c1ccnc(NS(=O)(=O)C2CC2)n1 (stereo not shown) [P95, 2-(2-(cyclopropanesulfonamido)pyrimidin-4-yl)-N-(2-fluoro-4-(6-methoxypyrazin-2-yl)phenyl)butanamide] |
| + (2-30 fold (+)) | CCOc1cncc(-c2ccc(NC(=O)C(CC)c3ccnc(NS(=O)(=O)C4CC4)n3)c(F)c2)n1 (stereo not shown) [P96, 2-(2-(cyclopropanesulfonamido)pyrimidin-4-yl)-N-(4-(6-ethoxypyrazin-2-yl)-2-fluorophenyl)butanamide] |
